One test deals with T1, human CSNK1D (Homo sapiens, UniProt P48730).
T1 construct: expressed in transfected cells
Briefly: Whole Cell nBRET CSNK1D Binding Assay. To be noted: living CHO cells stably expressing human CSNK1D tagged with nanoluciferase; NanoBret tracer 130 nM; 2 hours at 37 C.

Test [1] has as its target T2, human recombinant GST cleaved CSNK1D (Homo sapiens, UniProt P48730).
T2 construct: GST (cleaved yes); purchased University of Dundee clone DU 19064
Briefly: Purified Enzyme Assay (ADP-Glo CSNK1D Kinase Assay). In kind it is biochemical. To be noted: 2 nM CSNK1D; peptide substrate 150 μM; ATP 20 μM; 45 minutes at room temperature. The gist of the method:
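GST-cleaved human recombinant CSNK1D phosphorylates peptide PLSRTL-pS-VASLPGL with ATP; compounds added in dose-response, 45 min at room temperature. ADP formed measured by ADP-Glo luminescence and converted to percent activity.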
On the technique in general: ADP-Glo first removes unused ATP, then detects ADP through luciferase.

Molecules are shown by their SMILES.

As a reminder, the IC50 is the concentration that gives 50% inhibition.

T2 sequence (P48730 whole entry): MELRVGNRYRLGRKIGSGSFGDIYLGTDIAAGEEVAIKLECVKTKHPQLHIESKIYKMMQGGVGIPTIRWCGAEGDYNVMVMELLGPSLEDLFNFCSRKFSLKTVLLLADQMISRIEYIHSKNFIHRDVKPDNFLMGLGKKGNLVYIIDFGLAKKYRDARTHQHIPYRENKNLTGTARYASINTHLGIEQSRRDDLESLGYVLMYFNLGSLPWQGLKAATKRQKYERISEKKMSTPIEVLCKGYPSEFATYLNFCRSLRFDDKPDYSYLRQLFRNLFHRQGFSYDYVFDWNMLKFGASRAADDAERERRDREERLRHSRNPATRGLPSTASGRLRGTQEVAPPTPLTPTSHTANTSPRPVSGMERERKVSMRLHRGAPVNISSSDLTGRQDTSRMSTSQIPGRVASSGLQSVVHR
T1 sequence (P48730 whole entry): as above

For the compound `[2H]C([2H])([2H])OC[C@@]1(F)CCc2c(-c3cc(C)nc4[nH]ncc34)c(-c3ccc(F)cn3)nn2C1` (single isomer, unassigned) [Example 311, (*R)-4-(6-Fluoro-2-(5-fluoropyridin-2-yl)-6-((methoxy-d3)methyl)-4,5,6,7-tetrahydropyrazolo[1,5-a]pyridin-3-yl)-6-methyl-1H-pyrazolo[3,4-b]pyridine], the figures for the IC50 (on human CSNK1D; in test [1]) were 1.41 µM and 0.092 µM, respectively.

Turning to `COCC1(F)CCc2c(-c3c(F)c(C)nc4[nH]ncc34)c(-c3ccc(F)cn3)nn2C1` (single isomer, unassigned) [Example 309, (*R)-5-Fluoro-4-[6-fluoro-2-(5-fluoro-2-pyridyl)-6-(methoxymethyl)-5,7-dihydro-4H-pyrazolo[1,5-a]pyridin-3-yl]-6-methyl-1H-pyrazolo[3,4-b]pyridine], the figures for the IC50 (on human CSNK1D; in test [1]) were 1.32 µM and 0.097 µM, respectively.

As for `COC1(C)COCc2c(-c3ccnc4[nH]ncc34)c(-c3ccc(F)cn3)nn2C1` (single isomer, unassigned) [Example 485, (*S)-2-(5-Fluoropyridin-2-yl)-7-methoxy-7-methyl-3-(1H-pyrazolo[3,4-b]pyridin-4-yl)-7,8-dihydro-4H,6H-pyrazolo[5,1-c][1,4]oxazepine], the IC50 is 8.06 µM on human CSNK1D and 0.37 µM in test [1].

Turning to `Fc1ccc(-c2nn3c(c2-c2c(F)cnc4[nH]ncc24)CC(F)(F)CC3)cc1` [Example 278, 4-[5,5-Difluoro-2-(4-fluorophenyl)-6,7-dihydro-4H-pyrazolo[1,5-a]pyridin-3-yl]-5-fluoro-1H-pyrazolo[3,4-b]pyridine], the IC50 amounted to 0.064 µM at human CSNK1D and 0.007 µM in test [1].

With `Cc1nc(-c2c(-c3ccc(F)cc3)nn3c2CC[C@]2(C3)CC2(F)F)c2cn[nH]c2n1` (single isomer, unassigned) [Example 336, (*R)-2,2-Difluoro-2′-(4-fluorophenyl)-3′-(6-methyl-1H-pyrazolo[3,4-d]pyrimidin-4-yl)-4′,5′-dihydro-7′H-spiro[cyclopropane-1,6′-pyrazolo[1,5-a]pyridine]], the IC50 on human CSNK1D turned out to be 0.009 µM; in test [1], 0.001 µM.

Turning to `Cc1cc(-c2c(-c3ccc(F)cc3)nn3c2COCC3(C)C)c2cn[nH]c2n1` [Example 121, 2-(4-Fluorophenyl)-7,7-dimethyl-3-(6-methyl-1H-pyrazolo[3,4-b]pyridin-4-yl)-4,6-dihydropyrazolo[5,1-c][1,4]oxazine], the IC50 on human CSNK1D is 0.233 µM; in test [1] it was 0.014 µM.

For `CC1(C)Cn2nc(-c3ccc(F)cn3)c(-c3ccn4ncc(Cl)c4c3)c2CO1` [Example 384, 3-(3-Chloropyrazolo[1,5-a]pyridin-5-yl)-2-(5-fluoropyridin-2-yl)-6,6-dimethyl-6,7-dihydro-4H-pyrazolo[5,1-c][1,4]oxazine], the IC50 on human CSNK1D was found to be 0.171 µM; in test [1], 0.015 µM.

For `Cc1nc2[nH]ncc2c(-c2c(-c3ccc(F)cn3)nn3c2C[C@@H]2C[C@@H]23)c1F` [Example 273, (4aS,5aS)-3-(5-Fluoro-6-methyl-1H-pyrazolo[3,4-b]pyridin-4-yl)-2-(5-fluoropyridin-2-yl)-4,4a,5,5a-tetrahydrocyclopropa[4,5]pyrrolo[1,2-b]pyrazole], the IC50 at human CSNK1D was found to be 0.029 µM; in test [1], 0.002 µM.

In the case of `[2H]C([2H])([2H])[C@]1(C(F)(F)F)Cn2nc(-c3ccc(F)cn3)c(-c3ccnc4[nH]nc(C)c34)c2CO1` (single isomer, unassigned) [Example 425, (*R)-2-(5-Fluoropyridin-2-yl)-6-(methyl-d3)-3-(3-methyl-1H-pyrazolo[3,4-b]pyridin-4-yl)-6-(trifluoromethyl)-6,7-dihydro-4H-pyrazolo[5,1-c][1,4]oxazine], the IC50 at human CSNK1D was 2.26 µM; in test [1], 0.235 µM.

`CC1(C)Cn2nc(-c3ccc(Cl)cn3)c(-c3ccnc4[nH]ncc34)c2CO1` [Example 146, 2-(5-Chloropyridin-2-yl)-6,6-dimethyl-3-(1H-pyrazolo[3,4-b]pyridin-4-yl)-6,7-dihydro-4H-pyrazolo[5,1-c][1,4]oxazine]: the IC50 at human CSNK1D came out at 0.359 µM; in test [1], 0.018 µM.

For `Fc1ccc(-c2nn3c(c2-c2ccnc4[nH]ncc24)CO[C@H](C2CCC2)C3)nc1` (single isomer, unassigned) [Example 110, (*R)-6-Cyclobutyl-2-(5-fluoropyridin-2-yl)-3-(1H-pyrazolo[3,4-b]pyridin-4-yl)-6,7-dihydro-4H-pyrazolo[5,1-c][1,4]oxazine], the values for the IC50 (at human CSNK1D; in test [1]) were 1.17 µM and 0.049 µM, respectively.

As to `CC1(C)Cn2nc(-c3ccc(F)cn3)c(-c3ccnc4[nH]nc(Br)c34)c2CO1` [Example 152, 3-(3-Bromo-1H-pyrazolo[3,4-b]pyridin-4-yl)-2-(5-fluoropyridin-2-yl)-6,6-dimethyl-6,7-dihydro-4H-pyrazolo[5,1-c][1,4]oxazine], the results for the IC50 (at human CSNK1D; in test [1]) were 0.025 µM and 0.003 µM, respectively.

`CC1(CF)CCc2c(-c3ccn4nccc4c3)c(-c3ccc(F)cn3)nn2C1` (single isomer, unassigned) [Example 290, (*S)-5-[6-(Fluoromethyl)-2-(5-fluoro-2-pyridyl)-6-methyl-5,7-dihydro-4H-pyrazolo[1,5-a]pyridin-3-yl]pyrazolo[1,5-a]pyridine]: the IC50 was determined as 0.12 µM at human CSNK1D and 0.539 µM in test [1].

Regarding `Fc1ccc(-c2nn3c(c2-c2ccnc4[nH]ncc24)CC2(C3)CC2(F)F)cc1` (single isomer, unassigned) [Example 250, (*S)-1′,1′-Difluoro-2-(4-fluorophenyl)-3-(1H-pyrazolo[3,4-b]pyridin-4-yl)spiro[4,6-dihydropyrrolo[1,2-b]pyrazole-5,2′-cyclopropane]], the IC50 on human CSNK1D was 0.005 µM; in test [1], 0.001 µM.

Consider `CC1(C)Cc2c(-c3ccnc4[nH]ncc34)c(-c3ccc(F)cn3)nn2C1` [Example 234, 4-[2-(5-Fluoro-2-pyridyl)-5,5-dimethyl-4,6-dihydropyrrolo[1,2-b]pyrazol-3-yl]-1H-pyrazolo[3,4-b]pyridine], for which the values for the IC50 (at human CSNK1D; in test [1]) were 0.032 µM and 0.002 µM, respectively.

Take `CC1(C)CCc2c(-c3ccnc(N)c3)c(-c3ccc(F)cn3)nn2C1` [Example 281, 4-[2-(5-Fluoro-2-pyridyl)-6,6-dimethyl-5,7-dihydro-4H-pyrazolo[1,5-a]pyridin-3-yl]pyridin-2-amine]: the figures for the IC50 (on human CSNK1D; in test [1]) were 0.054 µM and 0.004 µM, respectively.

As to `Fc1ccc(-c2nn3c(c2-c2ccnc4[nH]ncc24)CCC(F)(F)C3)cc1` [Example 42, 4-(6,6-Difluoro-2-(4-fluorophenyl)-4,5,6,7-tetrahydropyrazolo[1,5-a]pyridin-3-yl)-1H-pyrazolo[3,4-b]pyridine], the IC50 on human CSNK1D was 0.016 µM; in test [1], 0.003 µM.

As for `Cc1cc(-c2c(-c3ccc(F)cc3)nn3c2OCC(C)C3)c2cn[nH]c2n1` (racemic) [Example 192, (R/S)-2-(4-Fluorophenyl)-6-methyl-3-(6-methyl-1H-pyrazolo[3,4-b]pyridin-4-yl)-6,7-dihydro-5H-pyrazolo[5,1-b][1,3]oxazine], the half-inhibitory concentration (IC50) at human CSNK1D is 0.004 µM; in test [1], 0.001 µM.

Consider `Fc1ccc(-c2nn3c(c2-c2c(F)cnc4[nH]ncc24)CC[C@@H]2C[C@@H]23)nc1` (single isomer, unassigned) [Example 343, (5a*R,6a*S)-3-(5-Fluoro-1H-pyrazolo[3,4-b]pyridin-4-yl)-2-(5-fluoropyridin-2-yl)-5,5a,6,6a-tetrahydro-4H-cyclopropa[e]pyrazolo[1,5-a]pyridine], for which the IC50 worked out at 0.096 µM at human CSNK1D and 0.005 µM in test [1].

Take `[2H]C([2H])([2H])[C@]1(C#N)CCc2c(-c3ccnc4[nH]ncc34)c(-c3ccc(F)cn3)nn2C1` (single isomer, unassigned) [Example 323, *S-2-(5-Fluoropyridin-2-yl)-6-(methyl-d3)-3-(1H-pyrazolo[3,4-b]pyridin-4-yl)-4,5,6,7-tetrahydropyrazolo[1,5-a]pyridine-6-carbonitrile]: the results for the IC50 (on human CSNK1D; in test [1]) were 0.015 µM and 0.001 µM, respectively.

Consider `Fc1ccc(-c2nn3c(c2-c2ccnc4[nH]ncc24)CCC(F)(COC(F)(F)F)C3)nc1` (single isomer, unassigned) [Example 316, (*S)-4-[6-Fluoro-2-(5-fluoro-2-pyridyl)-6-(rifluoromethoxymethyl)-5,7-dihydro-4H-pyrazolo[1,5-a]pyridin-3-yl]-1H-pyrazolo[3,4-b]pyridine], for which the results for the IC50 (on human CSNK1D; in test [1]) were 0.054 µM and 0.006 µM, respectively.

In the case of `Fc1ccc(-c2nn3c(c2-c2ccnc4[nH]ncc24)[C@@H]2CC[C@H]3C2)nc1` (single isomer, unassigned) [Example 62, (4*R,7*S)-2-(5-Fluoropyridin-2-yl)-3-(1H-pyrazolo[3,4-b]pyridin-4-yl)-4,5,6,7-tetrahydro-4,7-methanopyrazolo[1,5-a]pyridine], the IC50 at human CSNK1D was 0.055 µM; in test [1], 0.006 µM.

Turning to `Fc1ccc(-c2nn3c(c2-c2ccnc4[nH]ncc24)CCC2(C3)CC2(F)F)nc1` (single isomer, unassigned) [Example 327, (*S)-2,2-Difluoro-2′-(5-fluoropyridin-2-yl)-3′-(1H-pyrazolo[3,4-b]pyridin-4-yl)-4′,5′-dihydro-7′H-spiro[cyclopropane-1,6′-pyrazolo[1,5-a]pyridine]], the IC50 at human CSNK1D stood at 0.097 µM; in test [1], 0.014 µM.

`Cc1n[nH]c2nccc(-c3c(-c4ccc(F)cc4)nn4c3OCC3(C4)CC3(F)F)c12` (single isomer, unassigned) [Example 473, (*R)-2,2-Difluoro-2′-(4-fluorophenyl)-3′-(3-methyl-1H-pyrazolo[3,4-b]pyridin-4-yl)-5′H,7′H-spiro[cyclopropane-1,6′-pyrazolo[5,1-b][1,3]oxazine]]: the IC50 stood at 0.006 µM on human CSNK1D and 0.002 µM in test [1].

Values taken from patent publication US20230339970A1, “CASEIN KINASE 1 DELTA MODULATORS” (priority 2020, published 2023).
